Assay results taken from patent US20150111864A1, “CRYSTALLINE FORM OF A BETA-LACTAMASE INHIBITOR” (Cubist Pharmaceuticals, Inc., priority 2013, published 2015).

Assays:
Cfr.568 (AmpC, clinical) = experiment: Standard BLI Potentiation MIC Assay in Combination with Ceftolozane; format: cell-based, Citrobacter spp; conditions: Citrobacter, read-out: MIC of Ceftolozane, No BLI
Method: (§1) The experimental protocol was performed according to Clinical and Laboratory Standards Institute (CLSI) guidelines with modifications as described below (CLSI guidelines can be derived from the CLSI document M07-A9 published in January 2012: “Methods for Dilution Antimicrobial Susceptibility Tests for Bacteria That Grow Aerobically; Approved Standard-Ninth Edition”).
(§2) Frozen glycerol stocks of laboratory engineered, isogenic E. coli strains, which contain cloned β-lactamase expressing plasmids were used to streak for isolated colonies on rich, selective LB agar supplemented with 25 μg/mL tetracycline to maintain the plasmid. All strains were incubated at 37° C. for 18-24 hrs.
(§3) On the day of testing, primary cultures were started by scraping off 5-10 colonies from the TSAB plates containing clinical strains or the tetracycline supplemented LB plates containing engineered strains. […]
(§4) Plates were incubated for 18-20 hours at 37° C. with aeration (200 rpm). Following incubation, growth was confirmed visually placing plates over a viewing apparatus (stand with a mirror underneath) and then OD600 was measured using a SpectraMax 340PC384 plate reader (Molecular Devices, Sunnyvale, Calif.). Growth was defined as turbidity that could be detected with the naked eye or achieving minimum OD600 of 0.1. […]

[1] = tested on: Eco.2845 (OXA-15, isogenic); experiment: as above; format: cell-based, Escherichia coli; conditions: Escherichia coli, read-out: MIC of Ceftolozane, No BLI
Method: as §1, §2
(§5) On the day of testing, primary cultures were started by scraping off 5-10 colonies from the TSAB plates containing clinical strains or the tetracycline supplemented LB plates containing engineered strains. The clinical strain material was suspended in ˜5 mL of cation adjusted Mueller Hinton Broth (CAMHB) in 14 mL culture tubes. The engineered strain material was suspended in CAMHB (supplemented with 25 μg/mL tetracycline) in 14 mL culture tubes. All strains were incubated at 37° C. with aeration (200 rpm) for ˜2 hrs until the optical density at 600 nm (OD600) was ≧0.1.
(§6) The two compound components of the assay were each diluted in CAMHB and added to the 96-well broth microdilution assay plates. 50 μL of the β-lactam was added to each well of the assay plate in 2-fold dilutions with final concentrations ranging from 128 to 0.13 μg/mL. 25 μL of the BLI compound was added to all wells in the broth microdilution plates at a final concentration of 4 μg/mL. Inoculum cultures were prepared by standardizing the primary cultures to OD600=0.1 and then adding 20 μL of the adjusted primary culture per 1 mL CAMHB for clinical strains or CAMHB (supplemented with tetracycline at 100 μg/mL) for engineered strains, so that the final inoculum density was ˜10^5 colony forming units per milliliter. Diluted inoculum cultures were used to inoculate 25 μL per well in 96-well broth microdilution assay plates. The final volume of each well was 100 μL and contained a β-lactam at different concentrations, a BLIcompound at 4 μg/mL concentration, the bacterial culture at an OD600 of approximately 0.001 and when necessary tetracycline at 25 μg/mL.
(§7) Plates were incubated for 18-20 hours at 37° C. with aeration (200 rpm). Following incubation, growth was confirmed visually placing plates over a viewing apparatus (stand with a mirror underneath) and then OD600 was measured using a SpectraMax 340PC384 plate reader (Molecular Devices, Sunnyvale, Calif.). Growth was defined as turbidity that could be detected with the naked eye or achieving minimum OD600 of 0.1. MIC values were defined as the lowest concentration producing no visible turbidity.

[2] = tested on: Eco.2843 (DHA-1, isogenic); experiment: as above; format: cell-based, Escherichia coli; conditions: Escherichia coli, read-out: MIC of Ceftolozane, No BLI
Method: as §1, §2, §5, §6, §7

[3] = tested on: Eco.2491 (CMY-2, clinical); experiment: as above; format: cell-based, Escherichia coli; conditions: Escherichia coli, read-out: MIC of Ceftolozane, No BLI
Method: as §1, §2, §5, §6, §7

Ecl.569 (AmpC, clinical) = experiment: as above; format: cell-based, Enterobacter spp; conditions: Enterobacter, read-out: MIC of Ceftolozane, No BLI
Method: as §1, §2, §3, §4

[4] = tested on: Eco.2902 (Aba-ADC-33, isogenic); experiment: as above; format: cell-based; conditions: Escherichia coli, read-out: MIC of Ceftolozane, No BLI
Method: as §1, §2, §3, §4

[5] = tested on: Panel of Isogenic and Clinical Strains Expressing β-Lactamases; experiment: Standard BLI Potentiation MIC Assay in Combination with Ceftolozane, whole panel; format: cell-based; conditions: panel of 24 strains; no BLI
Method: as §1, §2, §5, §6, §4

[6] = tested on: Pae.2885 (AmpC, clinical); experiment: Standard BLI Potentiation MIC Assay in Combination with Ceftolozane; format: cell-based, Pseudomonas aeruginosa; conditions: Pseudomonas aeruginosa, read-out: MIC of Ceftolozane, No BLI
Method: as §1, §2, §5, §6, §7

[7] = tested on: Pae.2757 (AmpC over-expn, clinical); experiment: as above; format: cell-based, Pseudomonas aeruginosa; conditions: Pseudomonas aeruginosa, read-out: MIC of Ceftolozane, No BLI
Method: as §1, §2, §5, §6, §7

[8] = tested on: Pae.2863 (AmpC de-repress, clinical); experiment: as above; format: cell-based, Pseudomonas aeruginosa; conditions: Pseudomonas aeruginosa, read-out: MIC of Ceftolozane, No BLI
Method: as §1, §2, §5, §6, §7

[9] = tested on: Kpn.2490 (KPC-3, SHV+, TEM+, clinical); experiment: as above; format: cell-based; conditions: Klebsiella pneumoniae, read-out: MIC of Ceftolozane, No BLI
Method: as §1, §2, §5
as §6, with “plates.” for “plates. The final volume of each well was 100 μL and contained a β-lactam at different concentrations, a BLIcompound at 4 μg/mL concentration, the bacterial culture at an OD600 of approximately 0.001 and when necessary tetracycline at 25 μg/mL.”

[10] = tested on: Kpn.2917 (KPC-2, SHV+, clinical); experiment: as above; format: cell-based; conditions: Klebsiella pneumoniae, read-out: MIC of Ceftolozane, No BLI
Method: as §1, §2, §5
as §6, with “plates.” for “plates. The final volume of each well was 100 μL and contained a β-lactam at different concentrations, a BLIcompound at 4 μg/mL concentration, the bacterial culture at an OD600 of approximately 0.001 and when necessary tetracycline at 25 μg/mL.”

[11] = tested on: Kpn.2926 (CTX-M-15, OXA-48, clinical); experiment: as above; format: cell-based; conditions: Klebsiella pneumoniae, read-out: MIC of Ceftolozane, No BLI
Method: as §1, §2, §5
as §6, with “plates.” for “plates. The final volume of each well was 100 μL and contained a β-lactam at different concentrations, a BLIcompound at 4 μg/mL concentration, the bacterial culture at an OD600 of approximately 0.001 and when necessary tetracycline at 25 μg/mL.”

[12] = tested on: Kpn.2909 (KPC-3, SHV+, TEM+, clinical); experiment: as above; format: cell-based; conditions: Klebsiella pneumoniae, read-out: MIC of Ceftolozane, No BLI
Method: as §1, §2, §5
as §6, with “plates.” for “plates. The final volume of each well was 100 μL and contained a β-lactam at different concentrations, a BLIcompound at 4 μg/mL concentration, the bacterial culture at an OD600 of approximately 0.001 and when necessary tetracycline at 25 μg/mL.”

[13] = tested on: Kpn.2783 (CTX-M-15, SHV+, TEM+, clinical); experiment: as above; format: cell-based; conditions: Klebsiella pneumoniae, read-out: MIC of Ceftolozane, No BLI
Method: as §1, §2, §5
as §6, with “plates.” for “plates. The final volume of each well was 100 μL and contained a β-lactam at different concentrations, a BLIcompound at 4 μg/mL concentration, the bacterial culture at an OD600 of approximately 0.001 and when necessary tetracycline at 25 μg/mL.”

[14] = tested on: Kpn.2914 (KPC-2, SHV+, clinical); experiment: as above; format: cell-based; conditions: Klebsiella pneumoniae, read-out: MIC of Ceftolozane, No BLI
Method: as §1, §2, §5
as §6, with “plates.” for “plates. The final volume of each well was 100 μL and contained a β-lactam at different concentrations, a BLIcompound at 4 μg/mL concentration, the bacterial culture at an OD600 of approximately 0.001 and when necessary tetracycline at 25 μg/mL.”

[15] = tested on: Eco.2840 (KPC-4, isogenic); experiment: as above; format: cell-based; conditions: Escherichia coli, read-out: MIC of Ceftolozane, No BLI
Method: as §1, §2, §5
as §6, with “plates.” for “plates. The final volume of each well was 100 μL and contained a β-lactam at different concentrations, a BLIcompound at 4 μg/mL concentration, the bacterial culture at an OD600 of approximately 0.001 and when necessary tetracycline at 25 μg/mL.”

[16] = tested on: Eco.2806 (KPC-2, isogenic); experiment: as above; format: cell-based; conditions: Escherichia coli, read-out: MIC of Ceftolozane, No BLI
Method: as §1, §2, §5
as §6, with “plates.” for “plates. The final volume of each well was 100 μL and contained a β-lactam at different concentrations, a BLIcompound at 4 μg/mL concentration, the bacterial culture at an OD600 of approximately 0.001 and when necessary tetracycline at 25 μg/mL.”

[17] = tested on: Kpn.2918 (KPC-3, SHV+, TEM+, clinical); experiment: as above; format: cell-based; conditions: Klebsiella pneumoniae, read-out: MIC of Ceftolozane, No BLI
Method: as §1, §2, §5
as §6, with “plates.” for “plates. The final volume of each well was 100 μL and contained a β-lactam at different concentrations, a BLIcompound at 4 μg/mL concentration, the bacterial culture at an OD600 of approximately 0.001 and when necessary tetracycline at 25 μg/mL.”

[18] = tested on: Eco.2781 (KPC-2, TEM+, clinical); experiment: as above; format: cell-based; conditions: Escherichia coli, read-out: MIC of Ceftolozane, No BLI
Method: as §1, §2, §5
as §6, with “plates.” for “plates. The final volume of each well was 100 μL and contained a β-lactam at different concentrations, a BLIcompound at 4 μg/mL concentration, the bacterial culture at an OD600 of approximately 0.001 and when necessary tetracycline at 25 μg/mL.”

[19] = tested on: Kpn.2478 (KPC-3, TEM+, clinical); experiment: as above; format: cell-based; conditions: Klebsiella pneumoniae, read-out: MIC of Ceftolozane, No BLI
Method: as §1, §2, §5
as §6, with “plates.” for “plates. The final volume of each well was 100 μL and contained a β-lactam at different concentrations, a BLIcompound at 4 μg/mL concentration, the bacterial culture at an OD600 of approximately 0.001 and when necessary tetracycline at 25 μg/mL.”

[20] = tested on: Kpn.571 (TEM-26, clinical); experiment: as above; format: cell-based; conditions: Klebsiella pneumoniae, read-out: MIC of Ceftolozane, No BLI
Method: as §1, §2, §5
as §6, with “plates.” for “plates. The final volume of each well was 100 μL and contained a β-lactam at different concentrations, a BLIcompound at 4 μg/mL concentration, the bacterial culture at an OD600 of approximately 0.001 and when necessary tetracycline at 25 μg/mL.”

[21] = tested on: Pae.2808 (KPC-2, clinical); experiment: as above; format: cell-based; conditions: Pseudomonas aeruginosa, read-out: MIC of Ceftolozane, No BLI
Method: as §1, §2, §5
as §6, with “plates.” for “plates. The final volume of each well was 100 μL and contained a β-lactam at different concentrations, a BLIcompound at 4 μg/mL concentration, the bacterial culture at an OD600 of approximately 0.001 and when necessary tetracycline at 25 μg/mL.”

[22] = tested on: Kpn.2913 (KPC-2, SHV+, clinical); experiment: as above; format: cell-based; conditions: Klebsiella pneumoniae, read-out: MIC of Ceftolozane, No BLI
Method: as §1, §2, §5
as §6, with “plates.” for “plates. The final volume of each well was 100 μL and contained a β-lactam at different concentrations, a BLIcompound at 4 μg/mL concentration, the bacterial culture at an OD600 of approximately 0.001 and when necessary tetracycline at 25 μg/mL.”

Eco.2711 (KPC, clinical) = experiment: as above; format: cell-based; conditions: Escherichia coli, read-out: MIC of Ceftolozane, No BLI
Method: as §1, §2, §5
as §6, with “plates.” for “plates. The final volume of each well was 100 μL and contained a β-lactam at different concentrations, a BLIcompound at 4 μg/mL concentration, the bacterial culture at an OD600 of approximately 0.001 and when necessary tetracycline at 25 μg/mL.”

In the case of Cn1c(N)c(NC(=O)NCCN)c[n+]1CC1=C(C(=O)O)N2C(=O)[C@@H](NC(=O)/C(=N\OC(C)(C)C(=O)[O-])c3nsc(N)n3)[C@H]2SC1 [Ceftolozane], the MIC (Cfr.568 (AmpC, clinical)) is reported as > 64 µg/mL, the MIC [1] is reported as > 64 µg/mL and the MIC [2] is reported as > 64 µg/mL. The MIC [3] was 16 to 32 µg/mL, the MIC (Ecl.569 (AmpC, clinical)) was > 64 µg/mL and the MIC [4] was > 64 µg/mL. The MIC50 [5] was > 64 µg/mL, the MIC90 [5] was > 64 µg/mL and the MIC [6] was 1 to 2 µg/mL. For the same compound, the MIC [7] was 4 to 8 µg/mL, the MIC [8] was 4 to 8 µg/mL and the MIC [9] was > 64 µg/mL. The MIC [10] was 16 to 32 µg/mL, the MIC [11] was > 64 µg/mL and the MIC [12] was > 64 µg/mL. For the same compound, the MIC [13] was > 64 µg/mL, the MIC [14] was 16 to 32 µg/mL and the MIC [15] was > 64 µg/mL. The MIC [16] was > 64 µg/mL, the MIC [17] was > 64 µg/mL and the MIC [18] was 4 to 8 µg/mL. The MIC [19] was > 64 µg/mL, the MIC [20] was 16 to 32 µg/mL and the MIC [21] was > 64 µg/mL. It also gave an MIC [22] of 16 to 32 µg/mL and an MIC (Eco.2711 (KPC, clinical)) of 16 to 32 µg/mL.
